How the values were obtained:
Format in all cases: nucleic-acid assay
Nucleic Acid [1] = assay: Binding affinity to CGT AGA GTG DNA sequence assessed as melting temperature by thermal denaturation assay
Nucleic Acid [2] = assay: Binding affinity to CGU AGA GUG RNA sequence assessed as melting temperature by thermal denaturation assay
Nucleic Acid [3] = assay: Binding affinity to CGT AAA GTG DNA sequence assessed as change in melting temperature by thermal denaturation assay
Nucleic Acid [4] = assay: Binding affinity to CGT ACA GTG DNA sequence assessed as change in melting temperature by thermal denaturation assay
Nucleic Acid [5] = assay: Binding affinity to CGT ATA GTG DNA sequence assessed as change in melting temperature by thermal denaturation assay
Nucleic Acid [6] = assay: Binding affinity to CGU AAA GUG RNA sequence assessed as change in melting temperature by thermal denaturation assay
Nucleic Acid [7] = assay: Binding affinity to CGU ACA GUG RNA sequence assessed as change in melting temperature by thermal denaturation assay
Nucleic Acid [8] = assay: Binding affinity to CGU AUA GUG RNA sequence assessed as change in melting temperature by thermal denaturation assay
Nucleic Acid [9] = assay: Binding affinity to CGT AGA GTG DNA sequence assessed as change in melting temperature by thermal denaturation assay
Nucleic Acid [10] = assay: Binding affinity to CGU AGA GUG RNA sequence assessed as change in melting temperature by thermal denaturation assay
Nucleic Acid [11] = assay: Binding affinity to AAA TAT ATA GTG DNA sequence by fluorescence emission spectrum analysis
Nucleic Acid [12] = assay: Binding affinity to AAA UAU AUA GUG C RNA sequence by fluorescence emission spectrum analysis
Nucleic Acid [13] = assay: Binding affinity to AAA TAT ATA GTG C DNA sequence assessed as melting temperature by thermal denaturation assay
Nucleic Acid [14] = assay: Binding affinity to AAA UAU AUA GUG C RNA sequence assessed as melting temperature by thermal denaturation assay
Nucleic Acid [15] = assay: Binding affinity to AAA TAT ATA GTG C DNA sequence assessed as change in melting temperature by thermal denaturation assay
Nucleic Acid [16] = assay: Binding affinity to AAA UAU AUA GUG C RNA sequence assessed as change in melting temperature by thermal denaturation assay

Row | Compound | Tm (Nucleic Acid [1]) | Tm (Nucleic Acid [2]) | ΔTm (Nucleic Acid [3]) | ΔTm (Nucleic Acid [4]) | ΔTm (Nucleic Acid [5]) | ΔTm (Nucleic Acid [6]) | ΔTm (Nucleic Acid [7]) | ΔTm (Nucleic Acid [8]) | ΔTm (Nucleic Acid [9]) | ΔTm (Nucleic Acid [10]) | fold change (FC) (Nucleic Acid [11]) | fold change (FC) (Nucleic Acid [12]) | Tm (Nucleic Acid [13]) | Tm (Nucleic Acid [14]) | ΔTm (Nucleic Acid [15]) | ΔTm (Nucleic Acid [16])
1 | Cc1cn([C@H]2C[C@H](OP(=O)(O)OC[C@H]3O[C@@H](n4ccc(N)nc4=O)[C@H](O)[C@@H]3OP(=O)(O)OC[C@H]3O[C@@H](n4cnc5c(N)ncnc54)[C@H](O)[C@@H]3OP(=O)(O)OC[C@H]3O[C@@H](n4ccc(N)nc4=O)[C@H](O)[C@@H]3O)[C@@H](COP(=O)(O)O[C@H]3[C@@H](O)[C@H](n4ccc(N)nc4=O)O[C@@H]3COP(=O)(O)O[C@H]3C[C@H](n4cc(C)c(=O)[nH]c4=O)O[C@@H]3COP(=O)(O)O[C@H]3[C@@H](O)[C@H](n4cnc5c(N)ncnc54)O[C@@H]3COP(=O)(O)O[C@H]3[C@@H](O)[C@H](n4ccc(N)nc4=O)O[C@@H]3COP(=O)(O)O[C@H]3[C@@H](O)[C@H](n4cnc5c(=O)[nH]c(N)nc54)O[C@@H]3COP(=O)(O)O)O2)c(=O)[nH]c1=O | 34.5 °C | 36.5 °C | < -24.5 °C | < -24.5 °C | -21.5 °C | -23.5 °C | < -26.5 °C | < -26.5 °C |  |  |  |  |  |  |  | 
2 | Cc1cn([C@@H]2O[C@@]3(COP(=O)(O)O[C@H]4[C@@H](O)[C@H](n5cnc6c(=O)[nH]c(N)nc65)O[C@@H]4COP(=O)(O)O)CN(C(=O)c4ccc5ccc6cccc7ccc4c5c67)[C@@H]2[C@@H]3OP(=O)(O)OC[C@H]2O[C@@H](n3cnc4c(N)ncnc43)[C@H](O)[C@@H]2OP(=O)(O)OC[C@H]2O[C@@H](n3cc(C)c(=O)[nH]c3=O)C[C@@H]2OP(=O)(O)OC[C@@]23CN(C(=O)c4ccc5ccc6cccc7ccc4c5c67)[C@@H]([C@H](n4cc(C)c(N)nc4=O)O2)[C@@H]3OP(=O)(O)OC[C@H]2O[C@@H](n3cc(C)c(=O)[nH]c3=O)C[C@@H]2OP(=O)(O)OC[C@H]2O[C@@H](n3ccc(N)nc3=O)[C@H](O)[C@@H]2OP(=O)(O)OC[C@H]2O[C@@H](n3cnc4c(N)ncnc43)[C@H](O)[C@@H]2OP(=O)(O)OC[C@H]2O[C@@H](n3ccc(N)nc3=O)[C@H](O)[C@@H]2O)c(=O)nc1N | 45 °C | 47 °C | -27 °C | -30 °C | -32.5 °C |  |  |  | 5.5 °C | 5.5 °C | 3.6 | 3.6 |  |  |  | 
3 | Cc1cn([C@@H]2O[C@@]3(COP(=O)(O)O[C@H]4[C@@H](O)[C@H](n5cnc6c(N)ncnc65)O[C@@H]4COP(=O)(O)O[C@H]4[C@@H]5[C@H](n6cc(C)c(=O)[nH]c6=O)O[C@@]4(COP(=O)(O)O[C@H]4C[C@H](n6cc(C)c(=O)[nH]c6=O)O[C@@H]4COP(=O)(O)O[C@H]4C[C@H](n6cc(C)c(=O)[nH]c6=O)O[C@@H]4COP(=O)(O)O)CN5C(=O)c4ccc5ccc6cccc7ccc4c5c67)CN(C(=O)c4ccc5ccc6cccc7ccc4c5c67)[C@@H]2[C@@H]3OP(=O)(O)OC[C@H]2O[C@@H](n3cnc4c(N)ncnc43)[C@H](O)[C@@H]2OP(=O)(O)OC[C@H]2O[C@@H](n3cc(C)c(=O)[nH]c3=O)C[C@@H]2OP(=O)(O)OC[C@H]2O[C@@H](n3cnc4c(N)ncnc43)[C@H](O)[C@@H]2OP(=O)(O)OC[C@H]2O[C@@H](n3cc(C)c(=O)[nH]c3=O)C[C@@H]2OP(=O)(O)OC[C@H]2O[C@@H](n3ccc(N)nc3=O)[C@H](O)[C@@H]2OP(=O)(O)OC[C@H]2O[C@@H](n3cnc4c(N)ncnc43)[C@H](O)[C@@H]2OP(=O)(O)OC[C@H]2O[C@@H](n3ccc(N)nc3=O)[C@H](O)[C@@H]2OP(=O)(O)OC[C@H]2O[C@@H](n3cnc4c(=O)[nH]c(N)nc43)[C@H](O)[C@@H]2O)c(=O)[nH]c1=O |  |  |  |  |  |  |  |  |  |  | 3.5 | 3.5 | 46.5 °C | 48 °C | 6.5 °C | 8 °C
4 | Cc1cn([C@@H]2O[C@@]3(COP(=O)(O)O[C@H]4C[C@H](n5cc(C)c(=O)[nH]c5=O)O[C@@H]4COP(=O)(O)O[C@H]4[C@@H](O)[C@H](n5ccc(N)nc5=O)O[C@@H]4COP(=O)(O)O[C@H]4C[C@H](n5cc(C)c(=O)[nH]c5=O)O[C@@H]4COP(=O)(O)O[C@H]4[C@@H](O)[C@H](n5cnc6c(N)ncnc65)O[C@@H]4COP(=O)(O)O[C@H]4[C@@H](O)[C@H](n5ccc(N)nc5=O)O[C@@H]4COP(=O)(O)O[C@H]4[C@@H](O)[C@H](n5cnc6c(=O)[nH]c(N)nc65)O[C@@H]4COP(=O)(O)O)CN(C(=O)c4ccc5ccc6cccc7ccc4c5c67)[C@@H]2[C@@H]3OP(=O)(O)OC[C@H]2O[C@@H](n3cnc4c(N)ncnc43)[C@H](O)[C@@H]2OP(=O)(O)OC[C@H]2O[C@@H](n3ccc(N)nc3=O)[C@H](O)[C@@H]2O)c(=O)nc1N | 37 °C | 40 °C |  |  |  |  |  |  | 2.5 °C | 3.5 °C |  |  |  |  |  | 
5 | Cc1cn([C@@H]2O[C@@]3(COP(=O)(O)O[C@H]4C[C@H](n5cc(C)c(=O)[nH]c5=O)O[C@@H]4COP(=O)(O)O[C@H]4[C@@H]5[C@H](n6cc(C)c(N)nc6=O)O[C@@]4(COP(=O)(O)O[C@H]4C[C@H](n6cc(C)c(=O)[nH]c6=O)O[C@@H]4COP(=O)(O)O[C@H]4[C@@H](O)[C@H](n6cnc7c(N)ncnc76)O[C@@H]4COP(=O)(O)O[C@H]4[C@@H](O)[C@H](n6ccc(N)nc6=O)O[C@@H]4COP(=O)(O)O[C@H]4[C@@H](O)[C@H](n6cnc7c(=O)[nH]c(N)nc76)O[C@@H]4COP(=O)(O)O)CN5C(=O)c4ccc5ccc6cccc7ccc4c5c67)CN(C(=O)c4ccc5ccc6cccc7ccc4c5c67)[C@@H]2[C@@H]3OP(=O)(O)OC[C@H]2O[C@@H](n3cnc4c(N)ncnc43)[C@H](O)[C@@H]2OP(=O)(O)OC[C@H]2O[C@@H](n3ccc(N)nc3=O)[C@H](O)[C@@H]2O)c(=O)nc1N | 43 °C | 52.5 °C | -27 °C | -30 °C | -30 °C |  |  |  | 4.5 °C | 8 °C | 3.6 | 3.6 |  |  |  | 
6 | Cc1cn([C@@H]2O[C@@]3(COP(=O)(O)O[C@H]4[C@@H](O)[C@H](n5cnc6c(=O)[nH]c(N)nc65)O[C@@H]4COP(=O)(O)O)CN(C(=O)c4ccc5ccc6cccc7ccc4c5c67)[C@@H]2[C@@H]3OP(=O)(O)OC[C@H]2O[C@@H](n3cnc4c(N)ncnc43)[C@H](O)[C@@H]2OP(=O)(O)OC[C@H]2O[C@@H](n3cc(C)c(=O)[nH]c3=O)C[C@@H]2OP(=O)(O)OC[C@@]23CN(C(=O)c4ccc5ccc6cccc7ccc4c5c67)[C@@H]([C@H](n4cc(C)c(N)nc4=O)O2)[C@@H]3OP(=O)(O)OC[C@H]2O[C@@H](n3cc(C)c(=O)[nH]c3=O)C[C@@H]2OP(=O)(O)OC[C@@]23CN(C(=O)c4ccc5ccc6cccc7ccc4c5c67)[C@@H]([C@H](n4cc(C)c(N)nc4=O)O2)[C@@H]3OP(=O)(O)OC[C@H]2O[C@@H](n3cnc4c(N)ncnc43)[C@H](O)[C@@H]2OP(=O)(O)OC[C@H]2O[C@@H](n3ccc(N)nc3=O)[C@H](O)[C@@H]2O)c(=O)nc1N | 49.5 °C | 62 °C | -27 °C | -31 °C | -31.5 °C |  |  |  | 5 °C | 8.5 °C | 3.6 | 3.6 |  |  |  | 
7 | Cc1cn([C@@H]2O[C@@]3(COP(=O)(O)O[C@H]4C[C@H](n5cnc6c(N)ncnc65)O[C@@H]4COP(=O)(O)O[C@H]4C[C@H](n5cnc6c(=O)[nH]c(N)nc65)O[C@@H]4COP(=O)(O)O[C@H]4[C@H]5OC[C@]4(COP(=O)(O)O[C@H]4C[C@H](n6cnc7c(=O)[nH]c(N)nc76)O[C@@H]4CO)O[C@H]5n4cc(C)c(=O)[nH]c4=O)CO[C@@H]2[C@@H]3OP(=O)(O)OC[C@H]2O[C@@H](n3cnc4c(N)ncnc43)C[C@@H]2OP(=O)(O)OC[C@@]23CO[C@@H]([C@H](n4cc(C)c(=O)[nH]c4=O)O2)[C@@H]3OP(=O)(O)OC[C@H]2O[C@@H](n3cnc4c(=O)[nH]c(N)nc43)C[C@@H]2OP(=O)(O)OC[C@H]2O[C@@H](n3ccc(N)nc3=O)C[C@@H]2O)c(=O)[nH]c1=O |  |  |  |  |  |  |  |  |  |  | 3.5 | 3.5 | 45.5 °C | 46.5 °C | 6 °C | 7 °C
